Where two headings read alike, the source gives them in different places.
Molecular target: T1, G protein-coupled receptor 119 (GPR-119) (Mesocricetus auratus, UniProt A0A1U8CD06)
T1 construct: hamster-derived β-cells containing G protein-coupled receptor 119 (GPR-119), HIT-T15 cells; host or cells: HIT-T15 (hamster pancreatic β-cells)
T1 sequence (A0A1U8CD06 1-334): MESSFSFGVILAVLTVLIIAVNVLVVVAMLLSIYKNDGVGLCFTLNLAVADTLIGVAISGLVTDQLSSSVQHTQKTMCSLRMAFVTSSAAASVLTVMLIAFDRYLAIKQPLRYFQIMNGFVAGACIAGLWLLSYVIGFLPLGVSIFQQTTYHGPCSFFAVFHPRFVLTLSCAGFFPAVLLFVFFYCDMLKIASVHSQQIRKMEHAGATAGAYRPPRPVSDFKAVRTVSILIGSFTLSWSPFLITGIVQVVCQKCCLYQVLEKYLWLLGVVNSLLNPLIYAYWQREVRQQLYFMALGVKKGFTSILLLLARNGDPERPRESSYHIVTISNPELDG
Test: Evaluation of cAMP activity in HIT-T15 cells (HTRF cAMP dynamic kit)
Format: cell-based, hamster
Settings: cAMP activation
Summary of the method: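 HIT-T15 cells, 60,000/well, treated next day with compound at six concentrations ([…]) for 1 h at 37° C. Lysate cAMP quantified by HTRF competitive immunoassay (D2-cAMP, cryptate anti-cAMP); activity taken as change in FRET signal relative to DMSO.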

[1] = 1 h at 37° C., six concentrations, read-out: EC50
[2] = EC50 (nM), 1 h at 37° C., six concentrations

What does the source list for `CON(C)C(=O)C1CC=C(c2ccc(OCC3CCN(c4nc(C(C)C)no4)CC3)cc2)CC1` (stereo not shown) [Example 247, 4-(4-((1-(3-isopropyl-1,2,4-oxadiazol-5-yl)piperidin-4-yl)methoxy)phenyl)-N-methoxy-N-methylcyclohex-3-enecarboxamide]?
EC50 [1]: 16 nM; EC50 (read-out: EC50 value): ≤ 50 nM

Which EC50 [1] does the source give for `CCc1cnc(N2CCC(COc3ccc(C4=CCC(C(=O)N5CCC(=O)C5)CC4)cc3)CC2)nc1` (stereo not shown) [Example 250, 1-(4-(4-((1-(5-ethylpyrimidin-2-yl)piperidin-4-yl)methoxy)phenyl)cyclohex-3-enecarbonyl)pyrrolidin-3-one] here?
Its EC50 is 12 nM.

And the EC50 (read-out: EC50 value)?
Its EC50 is at most 50 nM.

For `CCc1cnc(N2CCC(COc3ccc(C4=CCC(C(=O)N5C/C(=N\OC)C(CO)(CO)C5)CC4)cc3)CC2)nc1` (stereo not shown) [Example 253, (Z)-(3,3-bis(hydroxymethyl)-4-(methoxyimino)pyrrolidin-1-yl)(4-(4-((1-(5-ethylpyrimidin-2-yl)piperidin-4-yl)methoxy)phenyl)cyclohex-3-enyl)methanone], which EC50 [1] is on record?
The EC50 was 9 nM.

With `CCc1cnc(N2CCC(COc3ccc(C4=CCC(C(=O)N5C/C(=N\OC)C6(CN(C(=O)OC(C)(C)C)C6)C5)CC4)cc3)CC2)nc1` (stereo not shown) [Example 254, (Z)-tert-butyl 6-(4-(4-((1-(5-ethylpyrimidin-2-yl)piperidin-4-yl)methoxy)phenyl)cyclohex-3-enecarbonyl)-8-(methoxyimino)-2,6-diazaspiro[3.4]octane-2-carboxylate] as the compound, how does the EC50 [1] read?
Its EC50 is 10 nM.

And the EC50 (read-out: EC50 value)?
The EC50 was at most 50 nM.

Which EC50 [1] does the source give for `CC(C)(C)OC(=O)N1CCC(COc2ccc(C3=CCC(C(=O)N4CCN(CC5CC5)CC4)CC3)cc2)CC1` (stereo not shown) [Example 256, tert-butyl 4-((4-(4-(4-(cyclopropylmethyl)piperazine-1-carbonyl)cyclohex-1-enyl)phenoxy)methyl)piperidine-1-carboxylate] here?
Its EC50 is 32 nM.

With `CC(C)(C)OC(=O)N1CCC(COc2ccc(C3=CCC(C(=O)N4CCC(F)(F)C4)CC3)cc2)CC1` (stereo not shown) [Example 257, tert-butyl 4-((4-(4-(3,3-difluoropyrrolidine-1-carbonyl)cyclohex-1-enyl)phenoxy)methyl)piperidine-1-carboxylate] as the compound, how does the EC50 [1] read?
The EC50 was 8 nM.

And the EC50 (read-out: EC50 value)?
The EC50 was at most 50 nM.

For `CCc1cnc(N2CCC(COc3ccc(C4=CCC(C(=O)N5CCC(F)(F)C5)CC4)cc3)CC2)nc1` (stereo not shown) [Example 258, (3,3-difluoropyrrolidin-1-yl)(4-(4-((1-(5-ethylpyrimidin-2-yl)piperidin-4-yl)methoxy)phenyl)cyclohex-3-enyl)methanone], which EC50 [1] is on record?
The EC50 was 10 nM.

And the EC50 (read-out: EC50 value)?
Its EC50 is at most 50 nM.

Which results are given for `CC(C)c1noc(N2CCC(COc3ccc(C4=CCC(C(=O)N5CCC(F)(F)C5)CC4)cc3)CC2)n1` (stereo not shown) [Example 259, (3,3-difluoropyrrolidin-1-yl)(4-(4-((1-(3-isopropyl-1,2,4-oxadiazol-5-yl)piperidin-4-yl)methoxy)phenyl)cyclohex-3-enyl)methanone]?
EC50 [1]: 10 nM; EC50 (read-out: EC50 value): ≤ 50 nM

For `CC(C)(C)OC(=O)N1CCC(COc2ccc(C3=CCC(C(=O)N4CCC5(CC4)OCCO5)CC3)cc2)CC1` (stereo not shown) [Example 263, tert-butyl 4-((4-(4-(1,4-dioxa-8-azaspiro[4.5]decane-8-carbonyl)cyclohex-1-enyl)phenoxy)methyl)piperidine-1-carboxylate], which EC50 [2] is on record?
The EC50 was 9 nM.

What about the EC50 (EC50 value) of the same compound?
The EC50 was at most 50 nM.

Which EC50 [1] does the source give for `CC(C)(C)OC(=O)N1CCC(COc2ccc(C3=CCC(C(=O)N4CCC5(C=Cc6ccccc65)CC4)CC3)cc2)CC1` (stereo not shown) [Example 264, tert-butyl 4-((4-(4-(spiro[indene-1,4′-piperidin]-1′-ylcarbonyl)cyclohex-1-enyl)phenoxy)methyl)piperidine-1-carboxylate] here?
Its EC50 is 18 nM.

How did the EC50 [1] turn out when `CC(C)(C)OC(=O)N1CCC(COc2ccc(C3=CCC(C(=O)N4CCC(=O)C4)CC3)cc2)CC1` (stereo not shown) [Example 265, tert-butyl 4-((4-(4-(3-oxopyrrolidine-1-carbonyl)cyclohex-1-enyl)phenoxy)methyl)piperidine-1-carboxylate] was run?
Its EC50 is 32 nM.

What about the EC50 (read-out: EC50 value) of the same compound?
Its EC50 is at most 50 nM.

With `CC(C)c1noc(N2CCC(COc3ccc(C4=CCC(C(=O)N5CCC(C#N)CC5)CC4)cc3)CC2)n1` (stereo not shown) [Example 266, 1-(4-(4-((1-(3-isopropyl-1,2,4-oxadiazol-5-yl)piperidin-4-yl)methoxy)phenyl)cyclohex-3-enecarbonyl)piperidine-4-carbonitrile] as the compound, how does the EC50 [1] read?
Its EC50 is 12 nM.

What about the EC50 (read-out: EC50 value) of the same compound?
The EC50 was at most 50 nM.

Which EC50 [2] does the source give for `CC(C)c1noc(N2CCC(COc3ccc(C4=CCC(C(=O)N5CCC6(CC5)OCCO6)CC4)cc3)CC2)n1` (stereo not shown) [Example 267, (4-(4-((1-(3-isopropyl-1,2,4-oxadiazol-5-yl)piperidin-4-yl)methoxy)phenyl)cyclohex-3-enyl)(1,4-dioxa-8-azaspiro[4.5]decan-8-yl)methanone] here?
The EC50 was 21 nM.

And the EC50 (EC50 value)?
The EC50 was at most 50 nM.

What does the source list for `CCO/N=C1/CCN(C(=O)C2CC=C(c3ccc(OCC4CCN(c5ncc(CC)cn5)CC4)cc3)CC2)C1` (stereo not shown) [Example 269, (3-(ethoxyimino)pyrrolidin-1-yl)(4-(4-((1-(5-ethylpyrimidin-2-yl)piperidin-4-yl)methoxy)phenyl)cyclohex-3-enyl)methanone]?
EC50 [1]: 35 nM; EC50 (read-out: EC50 value): ≤ 50 nM

For `CON=C1CCN(C(=O)C2CC=C(c3ccc(OCC4CCN(C(=O)OC(C)(C)C)CC4)cc3)CC2)CC1` (stereo not shown) [Example 270, tert-butyl 4-((4-(4-(4-(methoxyimino)piperidine-1-carbonyl)cyclohex-1-enyl)phenoxy)methyl)piperidine-1-carboxylate], which EC50 [1] is on record?
Its EC50 is 12 nM.

How did the EC50 [1] turn out when `CC(C)(C)OC(=O)N1CCC(COc2ccc(C3=CCC(C(=O)N4CCC(=NO)CC4)CC3)cc2)CC1` (stereo not shown) [Example 271, tert-butyl 4-((4-(4-(4-(hydroxyimino)piperidine-1-carbonyl)cyclohex-1-enyl)phenoxy)methyl)piperidine-1-carboxylate] was run?
The EC50 was 13 nM.

What about the EC50 (read-out: EC50 value) of the same compound?
Its EC50 is at most 50 nM.

With `CC(C)(C)OC(=O)N1CCC(COc2ccc(C3=CCC(C(=O)N4CCC(=O)CC4)CC3)cc2)CC1` (stereo not shown) [Example 272, tert-butyl 4-((4-(4-(4-oxopiperidine-1-carbonyl)cyclohex-1-enyl)phenoxy)methyl)piperidine-1-carboxylate] as the compound, how does the EC50 [2] read?
The EC50 was 33 nM.

And the EC50 (EC50 value)?
Its EC50 is at most 50 nM.

`CO/N=C1\CCN(C(=O)C2CC=C(c3ccc(OCC4CCN(C(=O)OC(C)(C)C)CC4)cc3)CC2)C1` (stereo not shown) [Example 273, tert-butyl 4-((4-(4-(3-(methoxyimino)pyrrolidine-1-carbonyl)cyclohex-1-enyl)phenoxy)methyl)piperidine-1-carboxylate] was tested. Which EC50 [1] did it give?
Its EC50 is 11 nM.

What about the EC50 (read-out: EC50 value) of the same compound?
Its EC50 is at most 50 nM.

What does the source list for `CCc1cnc(N2CCC(COc3ccc(C4=CCC(C(=O)N5CCC(=O)CC5)CC4)cc3)CC2)nc1` (stereo not shown) [Example 274, 1-(4-(4-((1-(5-ethylpyrimidin-2-yl)piperidin-4-yl)methoxy)phenyl)cyclohex-3-enecarbonyl)piperidin-4-one]?
EC50 [2]: 27 nM; EC50 (EC50 value): ≤ 50 nM

`CC(C)c1noc(N2CCC(COc3ccc(C4=CCC(C(=O)N5CCC(=O)CC5)CC4)cc3)CC2)n1` (stereo not shown) [Example 275, 1-(4-(4-((1-(3-isopropyl-1,2,4-oxadiazol-5-yl)piperidin-4-yl)methoxy)phenyl)cyclohex-3-enecarbonyl)piperidin-4-one] was tested. Which EC50 [2] did it give?
The EC50 was 28 nM.

And the EC50 (EC50 value)?
Its EC50 is at most 50 nM.

Which EC50 [1] does the source give for `CC(C)c1noc(N2CCC(COc3ccc(C4=CCC(C(=O)N5CCC(=NO)CC5)CC4)cc3)CC2)n1` (stereo not shown) [Example 276, (4-(hydroxyimino)piperidin-1-yl)(4-(4-((1-(3-isopropyl-1,2,4-oxadiazol-5-yl)piperidin-4-yl)methoxy)phenyl)cyclohex-3-enyl)methanone] here?
Its EC50 is 29 nM.

Reference: patent US9758527B2, “Cyclohexene derivative, preparation method therefor, and pharmaceutical composition for preventing or treating metabolic diseases, containing same as active ingredient” (HYUNDAI PHARM CO., LTD., priority 2014, dated 2017)
